Reference: patent US11026956B2, “Cancer drug and uses” (Health Clinics Limited, priority 2013, dated 2021)

How the values were obtained:
[1] = compared with arteether and artemether; cited from earlier work
MCF-7 cells = assay: Percentage of survival of MCF-7 cells by LDH content; assay type: cell-based; settings: 72 hours; for survival of MCF-7 cells, therapeutic administered individually: dosed once or multiple times (re-dosing at 24 and 48 h); for percent of survival of MCF-7 cells, administered more than once: re-dosing at 24 and 48 h; for percent of survival of MCF-7 cells, administered more than once / effect on percent of survival of MCF-7 cells, dosed singly: without Artesunate; for effect on percent of survival of MCF-7 cells, dosed singly: single dose
Experimental: To assess the effect of Artesunate in combination with several other therapeutics, MCF-7 cells were treated with different concentrations of these therapeutic compounds either once or through repeated dosing. The percentage of survival was calculated based on the LDH contents of cells. 1. 100 ul of cells suspension […]) were added to each well (3000 cells/well), with a total of 5 plates were seeded. […] [table] The appropriate volume of 100% Ethanol was added to Artesunate to obtain a concentration of 10 mg/ml. This was further diluted in 100% Ethanol to 1 mg/ml (1:10). 4 ug/ml was obtained by diluting 1 mg/ml (1:250) in complete medium. Further double decreasing dilutions were carried out in complete medium containing 0.4% Ethanol. […] This was further diluted in complete medium to 16 mM (1:6.25). Further double decreasing dilutions were carried out in complete medium. 2 mg of MMC were resuspended in 4 ml of sterile water to obtain a stock at 0.5 mg/ml. A second dilution of MMC was carried out by diluting 0.5 mg/ml in complete medium to 0.1 mg/ml (1:5). 4. Once the treatments were ready, 50 ul/well of Artesunate was added to the plates. […] 5. 50 ul of complete medium at 0.4% Ethanol and 50 ul of just complete medium were added to the corresponding control wells already containing either 100 ul of cells (positive control) or just 100 ul of complete medium (background control) 6. 100 ul of MMC at 100 ug/ml was added to the corresponding wells already containing 100 ul of cells in complete medium as a negative control and finally, plates were placed in the incubator. […] Media was removed from the wells by using a multichannel pipette. Wells were washed with 200 ul/well of PBS previously warmed at 37° C. 100 ul of Titron 1× in PBS previously warmed at 37° C. were added to the wells. Subsequently, the plate was placed at 37° C. in the dark for 45 min. 50 ul from each well was transferred to a non sterile 96-well plate. 50 ul of LDH substrate were added to each well of the non sterile plate already containing 50 ul/well of lysed cells and the plates were then incubating at room temperature in the dark for 30 min. 50 ul of Stop solution was added to each well and then the plate was read at 492 nm. 8. After 48 h of cells treatment, one of the 2 plates that had been re-dosed after 24 h was re-dosed again (treatments were prepared as described above for re-dosing). One of the 2 plates that had been treated just once will remain as it was in the incubator. The remaining 2 plates were used to measure the % of survival by LDH after 48 h of single treatment and after re-dosing at 24 h (LDH assay was performed as described above). Day 3: LDH-72 h and LDH-Re-Dosing at 24 h and at 48 h After 72 h of cells treatment, there were just 2 plates left in the incubator. They were used to measure the of survival by LDH after 72 h of single treatment and after re-dosing at 24 h and 48 h (LDH assay was performed as described above).

[2] = test system: human leukemia HL60 cells; settings: cited from earlier work
[3] = test system: human pancreatic cancer AsPC-1 cells; settings: cited from earlier work
[4] = test system: human pancreatic cancer BxPC-3 cells; settings: cited from earlier work
[5] = test system: ovarian cancer cell lines; settings: cited from earlier work
[6] = cited from earlier work
metastatic breast cancer = assay: Case reports: patients with metastatic breast cancer (CAT scan, symptoms, survival); assay type: in vivo, human; settings: single patient
Excerpt: A patient comprising a person was diagnosed by their physician with advanced metastatic breast cancer. The metastatic breast cancer consisted of tumors, including several found in both lungs. The physician prescribed a standard set of cancer therapeutics in an attempt to reduce or maintain the tumors. […] The physician placed the patient on a paliative care regime and provided the patient with several doses of the aromatase inhibitor, letrazole. […] The patient was next administered a treatment consisting of artemether at a dose of 40 mg OD, presented in a lipid filled capsule comprising tributyrin and G43.
A patient comprising a person was diagnosed by their physician with extensive metastaic breast cancer. The patient presented with tumors in brain liver and lungs. The patient also presented with symptoms that included shortness of breath and a persistent cough. The patient informed the physician that they would not take part in a standard chemotherapy treatment protocol. The physician informed the patient that they would only live for about three months survival. The patient was instead administered artemether at a dose of 40 mg OD, presented as a lipid filled capsule comprising tributyrin and G43. As a result of the treatment, the symptoms the patient suffered from, including, shortness of breath and a persistent cough diminished over the weeks following treatment with arthemether. […]

In the case of `C[C@H]1[C@@H](OCc2ccc(C(=O)O)cc2)O[C@@H]2O[C@@]3(C)CC[C@H]4[C@H](C)CC[C@@H]1[C@@]24OO3` [Artelinic acid], the rate of neurotoxicity [1] is given as “lower rate of neurotoxicity than the related artemisin derivatives arteether and artemether”.
For `C[C@H]1[C@H](OC(=O)CCC(=O)O)O[C@@H]2O[C@@]3(C)CC[C@H]4[C@H](C)CC[C@@H]1[C@@]24OO3` [Artesunate], the “survival of MCF-7 cells, therapeutic administered individually” value (MCF-7 cells) was “decreased the survival of MCF-7 cells”.
For `O=c1c(-c2ccc(O)cc2)coc2cc(O)ccc12` [Daidzein], the “percent of survival of MCF-7 cells, administered more than once” value (from here on “percent … administered more than once”) (MCF-7 cells) was “decreasing marginally” and the “effect on percent of survival of MCF-7 cells, dosed singly” value (from here on “effect on percent”) (MCF-7 cells) was “only minimal effect”.
In the case of `Oc1ccc([C@H]2COc3cc(O)ccc3C2)cc1` [Equol], the “percent … administered more than once” value (MCF-7 cells) is reported as “decreasing marginally” and the “effect on percent” value (MCF-7 cells) is reported as “only minimal effect”.
With `Oc1ccc(C=Cc2cc(O)cc(O)c2)cc1` [Resveratrol] the “percent … administered more than once” value (MCF-7 cells) was “decreasing marginally” and the “effect on percent” value (MCF-7 cells) was “only minimal effect”.
For `CCCC(=O)[O-].[Na+]` [Sodium Butyrate], the “survival of MCF-7 cells, therapeutic administered individually” value (MCF-7 cells) was “decreased the survival of MCF-7 cells”.
In the case of `CO[C@H]1O[C@@H]2O[C@@]3(C)CC[C@H]4[C@H](C)CC[C@@H]([C@H]1C)[C@@]24OO3` [artemether, (+)-(3-alpha,5a-beta,6-beta,8a-beta, 9-alpha,12-beta,12aR)-decahydro-10-methoxy-3,6,9-trimethyl-3,12-epoxy-12H-pyrano(4,3-j)-1,2-benzodioxepin], the “cytotoxicity (apoptosis, G2 cell cycle arrest)” value (“cytotoxicity” below) [2] is given as “dose- and time-dependent cytotoxicity”, the “cytotoxicity” value [3] is given as “dose- and time-dependent cytotoxicity” and the “cytotoxicity” value [4] is given as “dose- and time-dependent cytotoxicity”. For the same compound, the “cytotoxicity” value [5] was “dose- and time-dependent cytotoxicity”.
In the case of `C[C@@H]1CC[C@H]2[C@@H](C)C(=O)O[C@@H]3O[C@@]4(C)CC[C@@H]1[C@]32OO4` [artemisinin], the bioavailability [6] is given as “poor bioavailability”.
With `N#Cc1ccc(C(c2ccc(C#N)cc2)n2cncn2)cc1` [letrazole] the “tumor progression (CAT scan)” value (metastatic breast cancer; after several doses of the aromatase inhibitor on palliative care) was “progressing” and the “growth of one tumor in a lung” value (metastatic breast cancer; in three months, after several doses of the aromatase inhibitor) was 50%.
